Reference: the supplement of paper PMC10307832

Assays:
Assay in all cases: relative viability (nuclei count vs DMSO), 5 days (fraction); higher = more cells survive
[1] = compound: COc1cc(Nc2ncc(F)c(Nc3ccc4c(n3)NC(=O)C(C)(C)O4)n2)cc(OC)c1OC [R406] + CC(=O)c1c(C)c2cnc(Nc3ccc(N4CCNCC4)cn3)nc2n(C2CCCC2)c1=O [Palbociclib] (partner 0.5 µM)
In short: (§1)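 For relative viability, nuclei counts in treated wells were divided by those in vehicle wells. Lung cancer cell lines had been pin-tool dosed in 1536-well plates the day after seeding and cultured for 5 days, then fixed and stained in one step (final 0.05% Triton X-100, 1% formaldehyde, 1 ug/ml Hoechst) and imaged at 4×. Doses were one drug alone or a fixed anchor-drug dose plus five library-drug doses (not always all listed) in √10 steps, and values are duplicate-plate medians.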

[2] = compound: O=C(/C=C/c1cccnc1)NCCCCC1CCN(C(=O)c2ccccc2)CC1 [Daporinad] + CS(=O)(=O)N1CCN(Cc2cc3nc(-c4cccc5[nH]ncc45)nc(N4CCOCC4)c3s2)CC1 [Pictilisib] (partner 1 µM)
In short: as §1

[3] = compound: O=C(/C=C/c1cccnc1)NCCCCC1CCN(C(=O)c2ccccc2)CC1 [Daporinad] + CC(=O)c1c(C)c2cnc(Nc3ccc(N4CCNCC4)cn3)nc2n(C2CCCC2)c1=O [Palbociclib] (partner 0.5 µM)
In short: as §1

[4] = compound: O=C(/C=C/c1cccnc1)NCCCCC1CCN(C(=O)c2ccccc2)CC1 [Daporinad] + O=C(c1cc(Cc2n[nH]c(=O)c3ccccc23)ccc1F)N1CCN(C(=O)C2CC2)CC1 [Olaparib] (partner 8 µM)
In short: as §1

| Cell Line | relative viability ([1]; first compound 0.08 µM) | relative viability ([1]; first compound 0.253 µM) | relative viability ([1]; first compound 0.8 µM) | relative viability ([1]; first compound 2.53 µM) | relative viability ([1]; first compound 8 µM) | relative viability ([2]; first compound 0.0005 µM) | relative viability ([2]; first compound 0.001581 µM) | relative viability ([2]; first compound 0.005 µM) | relative viability ([2]; first compound 0.01581 µM) | relative viability ([3]; first compound 0.0005 µM) | relative viability ([3]; first compound 0.001581 µM) | relative viability ([3]; first compound 0.005 µM) | relative viability ([3]; first compound 0.01581 µM) | relative viability ([4]; first compound 0.0005 µM) | relative viability ([4]; first compound 0.001581 µM) | relative viability ([4]; first compound 0.005 µM) | relative viability ([4]; first compound 0.01581 µM) |
| --- | --- | --- | --- | --- | --- | --- | --- | --- | --- | --- | --- | --- | --- | --- | --- | --- | --- |
| HCC-44 | 0.945 | 0.982 | 0.858 | 1.02 | 1.16 | 0.643 | 0.658 | 0.706 | 0.657 | 0.97 | 0.988 | 1.04 | 0.963 | 0.962 | 1.06 | 1.04 | 0.985 |
| HCC-78 | 0.457 | 0.525 | 0.501 | 0.467 | 0.427 | 0.217 | 0.145 | 0.166 | 0.259 | 0.449 | 0.466 | 0.522 | 0.497 | 0.531 | 0.786 | 0.649 | 0.559 |
| HCC-366 | 0.36 | 0.465 | 0.387 | 0.262 | 0.0616 | 0.14 | 0.167 | 0.152 | 0.201 | 0.451 | – | 0.432 | 0.37 | 0.334 | – | 0.189 | 0.095 |
| HCC-827 | 0.508 | 0.538 | 0.517 | 0.422 | 0.373 | 1.12 | 0.994 | 1.23 | 1.01 | 0.419 | 0.486 | 0.5 | 0.435 | 0.612 | 0.728 | 0.608 | 0.504 |
| HOP-62 | 0.426 | 0.533 | 0.397 | 0.456 | 0.378 | – | 0.846 | 0.702 | 0.668 | 0.399 | 0.437 | 0.479 | 0.423 | 0.258 | 0.287 | 0.188 | 0.15 |
| IA-LM | – | – | – | – | – | 0.357 | 0.321 | 0.308 | 0.307 | – | – | – | – | 0.798 | 0.766 | 0.707 | 0.475 |
| LC-2-ad | 0.414 | 0.571 | 0.501 | 0.408 | 0.277 | 0.389 | 0.514 | 0.64 | 0.675 | 0.463 | 0.511 | 0.491 | 0.486 | 0.664 | 0.662 | 0.441 | 0.398 |
| LCLC-97TM1 | 0.34 | 0.218 | 0.273 | 0.185 | 0.217 | 0.2 | 0.185 | 0.284 | 0.26 | 0.194 | 0.191 | 0.24 | 0.235 | 0.435 | 0.322 | 0.201 | 0.122 |
| LCLC-103H | 0.45 | 0.507 | 0.529 | 0.46 | 0.319 | 0.693 | 0.649 | 0.619 | 0.606 | 0.526 | 0.556 | 0.503 | 0.518 | 0.877 | 0.741 | 0.697 | 0.688 |
| LK-2 | 0.592 | 0.679 | 0.854 | 0.574 | 0.542 | 0.605 | 0.689 | 0.46 | 0.354 | 0.637 | 0.765 | 0.279 | 0.214 | 0.657 | 0.459 | 0.394 | 0.28 |
| LOU-NH91 | 0.532 | 0.547 | 0.499 | 0.552 | 0.538 | 0.528 | 0.568 | 0.587 | 0.577 | 0.442 | 0.519 | 0.548 | 0.509 | 0.874 | 0.977 | 0.803 | 0.837 |
| LU99A | 0.343 | 0.392 | 0.422 | 0.273 | 0.26 | 0.312 | 0.383 | 0.392 | 0.306 | 0.381 | 0.414 | 0.391 | 0.391 | 0.188 | 0.198 | 0.199 | 0.186 |
| NCI-H522 | 1.11 | 0.916 | 0.969 | 0.899 | 0.719 | – | – | – | – | 1.06 | 1.06 | 0.746 | 0.908 | 0.659 | 0.621 | 0.573 | 0.49 |
| NCI-H596 | – | – | – | – | – | 0.402 | 0.371 | 0.421 | 0.448 | – | – | – | – | 0.647 | 0.562 | 0.542 | 0.441 |
| NCI-H1299 | – | – | – | – | – | 0.736 | 0.809 | 0.839 | 0.739 | – | – | – | – | 0.972 | 0.857 | 0.904 | 0.855 |
| NCI-H1563 | – | – | – | – | – | 0.639 | 0.642 | 0.605 | 0.701 | – | – | – | – | – | – | – | – |
| NCI-H1648 | 0.276 | 0.275 | 0.301 | 0.296 | 0.303 | – | – | – | – | 0.305 | 0.291 | 0.278 | 0.237 | 0.641 | 0.667 | – | 0.523 |
| NCI-H1703 | – | – | – | – | – | 0.236 | 0.283 | 0.259 | 0.265 | – | – | – | – | 0.514 | 0.388 | 0.576 | 0.41 |
| NCI-H2342 | 0.518 | 0.508 | 0.504 | 0.474 | 0.509 | – | – | – | – | 0.513 | 0.506 | 0.506 | 0.535 | 0.409 | 0.456 | 0.427 | 0.367 |
| SW 900 | 0.471 | 0.559 | 0.518 | 0.617 | 0.096 | – | – | – | – | 0.432 | – | 0.573 | 0.501 | 0.624 | – | 0.572 | 0.375 |
